Data: patent publication US20130131161A1, “METHODS AND COMPOSITIONS FOR CARDIOVASCULAR DISEASES AND CONDITIONS” (priority 2009, published 2013)

Tested on: Human umbilical vein endothelial cells (HUVECs)
Test: Comparison of LA-419 and ISDN: NO and ONOO− release from HUVECs measured with tandem electrochemical nanosensors (Example 1)
Type: cell-based
Details: for NO release (mean ± S.D.) / ONOO− release (mean ± S.D.): 500 nM, 12 hours, then CaI (1.0 μM)
Description: Human umbilical vein endothelial cells (HUVECs) were isolated into primary cultures and purchased as proliferating cells from Clonetics (San Diego, Calif.). All cell culture donors were healthy, with no pregnancy or prenatal complications. The cultured cells were incubated in 95% air/5% CO2 at 37° C. and passage by an enzymatic (trypsin) procedure. The confluent cells (4 to 5×10^5 cells per 35-mm dish) were placed with minimum essential medium containing 3 mM L-arginine and 0.1 mM BH4 [(6R)-5,6,7,8-tetrahydrobiopterin]. Before the experiments, the cells (from second or third passage) were rinsed twice with Tyrode-HEPES buffer with 1.8 mM CaCl2. ISDN was obtained from Sigma-Aldrich.
Concurrent measurements of NO and ONOO^− were carried out with tandem electrochemical nanosensors combined into one working unit with a total diameter of 200-500 nm (FIG. 1). Their design was based on previously developed and well-characterized chemically modified carbon-fiber technology (Malinski and Taha, 1992; Lvovich and Scheeline, 1997). Each of the nanosensors was made by depositing a sensing material on the tip of a carbon fiber (length 4-5 μm, diameter 0.2-0.5 μm). The fibers were sealed with nonconductive epoxy and electrically connected to copper wires with conductive silver epoxy. A conductive film of polymeric nickel (II) tetrakis(3-methoxy-4-hydroxyphenyl)porphyrin for the NO-sensor and polymeric film of Mn (III) [2.2]paracyclophanylporphyrin was used for the ONOO^−-sensor.
A module of NO/ONOO^− nanosensors (diameter 1-2 μm) with a platinum wire (0.1 mm) counter electrode and saturated calomel reference electrode (SCE) were applied. Differential pulse voltammetry (DPV) and amperometry were performed with a computer-based Gamry VFP600 multichannel potentiostat. DPV was used to measure the basal NO and ONOO^− concentrations, and amperometry was used to measure changes in NO and ONOO^− concentrations from its basal level with time. The DPV current at the peak potential characteristic for NO oxidation (0.65 V) and ONOO^− reduction (−0.45 V) was directly proportional to the local concentrations of these compounds in the immediate vicinity of the sensor. Linear calibration curves (current vs. concentration) were constructed for each sensor from 10 nM to 3 μM before and after measurements with aliquots of NO and ONOO^− standard solutions, respectively. The detection limit of the sensors was 1.0 nM.
The quantification of each analyte (concentration in nM) was performed using a maximum current from amperograms and standard calibration curves. A reproducibility of measurements with nanosensors is relatively high (between 5-12%). […] The sensors were slowly raised 5±2 μm from the surface of a single endothelial cell. The eNOS agonist, calcium ionophore A23187 (CaI) as well as the different drugs were then added to the surrounding media at the cell surface with a nanoinjector that was also positioned by a computer controlled-micromanipulator.
The HUVEC preparation is stable over the course of these experiments with the cells remaining viable in culture for >24 hours. Under non-stimulating conditions, basal levels of NO release are very low (<30 nM). Measurement of NO release as a function of treatment was conducted in individual endothelial cells. Multiple measurements of NO release can be conducted on single cells following a brief refractory period. For robust statistical analysis, separate cells were used for each concentration and type of drug used in these analyses.

[1] = HUVECs from Non-Hispanic Whites

CC(=O)SC1COC2C(O[N+](=O)[O-])COC12 (stereo not drawn) [LA-419, S-(6-Nitro-oxi-hexahydro-furo[3,2-b]furan-3-1-il)thioacetate]
NO release (mean ± S.D.) (HUVECs from African Americans): 253 ± 15 nM | ONOO− release (mean ± S.D.) (HUVECs from African Americans): 532 ± 25 nM | NO release (mean ± S.D.) [1]: 409 ± 30 nM | ONOO− release (mean ± S.D.) [1]: 307 ± 11 nM | effect on NO release (HUVECs from both non-Hispanic whites and African Americans, identical conditions): small increase | NO/ONOO− ratio versus control samples (HUVECs, 12 h treatment): not significantly different from control samples
